From ChEMBL document CHEMBL1201862, “PubChem BioAssay data set” (2004)
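Compound exposure: 48 hours, 5 concentrations, 96-well plates. Here, GI50 denotes the concentration required for 50% inhibition of growth.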 The source made the active and inactive calls. Rule as the data show it: active = GI50 up to about 1.1 µM and inactive = higher.

Tests used:
Assay in all cases: inhibition of tumour cell growth, NCI panel, 48 h
[1] = test system: 786-0
[2] = test system: A498
[3] = test system: A549
[4] = test system: ACHN
[5] = test system: CAKI-1
[6] = test system: CCRF-CEM
[7] = test system: COLO 205
[8] = test system: DLD-1
[9] = test system: DMS-273
[10] = test system: EKVX
[11] = test system: HCC 2998
[12] = test system: HCT-116
[13] = test system: HCT-15
[14] = test system: HL-60
[15] = test system: HOP-18
[16] = test system: HOP-62
[17] = test system: HOP-92
[18] = test system: HT-29
[19] = test system: IGROV-1
[20] = test system: K562
[21] = test system: KM-20L2
[22] = test system: KM12
[23] = test system: LOX IMVI
[24] = test system: LXFL 529
[25] = test system: M14
[26] = test system: MOLT-4
[27] = test system: Malme-3M
[28] = test system: NCI-H226
[29] = test system: NCI-H23
[30] = test system: NCI-H460
[31] = test system: NCI-H522
[32] = test system: OVCAR-4
[33] = test system: OVCAR-5
[34] = test system: OVCAR-8
[35] = test system: RPMI-8226
[36] = test system: RXF 393
[37] = test system: RXF 631
[38] = test system: SF-268
[39] = test system: SF-295
[40] = test system: SF-539
[41] = test system: SK-MEL-28
[42] = test system: SK-MEL-2
[43] = test system: SK-MEL-5
[44] = test system: SK-OV-3
[45] = test system: SN12C
[46] = test system: SNB-19
[47] = test system: SNB-75
[48] = test system: SNB-78
[49] = test system: SR
[50] = test system: SW-620
[51] = test system: TK-10
[52] = test system: U-251
[53] = test system: UACC-257
[54] = test system: UACC-62
[55] = test system: UO-31
[56] = test system: XF498
[57] = test system: DMS-114
[58] = test system: M19-MEL
[59] = test system: OVCAR-3

Measured: GI50

Cc1ccc2nc(NC(=O)/C(=N\NC(=S)NN)C3C(=O)NC(=S)NC3=O)sc2c1
> 100 µM: [13]
inactive: [1] > 100 µM | [2] > 100 µM | [3] > 100 µM | [4] > 100 µM | [5] > 100 µM | [6] > 100 µM | [7] > 100 µM | [8] > 100 µM | [9] > 100 µM | [10] > 100 µM | [11] > 100 µM | [12] > 100 µM | [14] > 100 µM | [15] 80 µM | [16] > 100 µM | [17] > 100 µM | [18] > 100 µM | [19] > 100 µM | [20] > 100 µM | [21] > 100 µM | [22] > 100 µM | [23] > 100 µM | [24] > 100 µM | [25] > 100 µM | [26] > 100 µM | [27] > 100 µM | [28] > 100 µM | [29] > 100 µM | [30] > 100 µM | [31] > 100 µM | [32] > 100 µM | [33] > 100 µM | [34] > 100 µM | [35] > 100 µM | [36] > 100 µM | [37] > 100 µM | [38] > 100 µM | [39] > 100 µM | [40] > 100 µM | [41] > 100 µM | [42] > 100 µM | [43] > 100 µM | [44] > 100 µM | [45] > 100 µM | [46] > 100 µM | [47] > 100 µM | [48] > 100 µM | [49] > 100 µM | [50] > 100 µM | [51] > 100 µM | [52] > 100 µM | [53] > 100 µM | [54] > 100 µM | [55] > 100 µM | [56] > 100 µM

COC(=O)C(C(=O)C(=O)Nc1ccc(C)cc1C)c1csc(-n2nc(-c3ccccc3)cc2-c2ccccc2)n1 (configuration not stated)
52.1 µM: [13]
inactive: [1] > 100 µM | [2] > 100 µM | [3] > 100 µM | [4] 53.5 µM | [5] > 100 µM | [6] 83.2 µM | [7] > 100 µM | [8] > 100 µM | [57] 23.8 µM | [9] > 100 µM | [10] 73.3 µM | [11] > 100 µM | [12] 58.1 µM | [14] > 100 µM | [15] 40.4 µM | [16] > 100 µM | [17] > 100 µM | [18] 31.4 µM | [19] > 100 µM | [20] 93.5 µM | [21] 57.5 µM | [22] 65.2 µM | [23] 80 µM | [24] > 100 µM | [25] > 100 µM | [58] > 100 µM | [26] 22.5 µM | [27] > 100 µM | [28] 80.2 µM | [29] > 100 µM | [30] > 100 µM | [31] > 100 µM | [59] 86.5 µM | [32] 82.4 µM | [33] 49.9 µM | [34] > 100 µM | [36] 92 µM | [37] > 100 µM | [38] 86.7 µM | [44] > 100 µM | [45] > 100 µM | [46] > 100 µM | [47] 6.37 µM | [48] > 100 µM | [49] > 100 µM | [50] > 100 µM | [51] > 100 µM | [52] 67.5 µM | [53] > 100 µM | [54] 61.7 µM | [55] 45.6 µM | [56] > 100 µM

Nc1nnc(CCC(=O)Nc2cc(Cl)ccc2Cl)n1N
inactive: [2] > 100 µM | [3] > 100 µM | [4] > 100 µM | [5] > 100 µM | [6] > 100 µM | [7] > 100 µM | [8] > 100 µM | [57] > 100 µM | [9] > 100 µM | [10] > 100 µM | [11] > 100 µM | [12] > 100 µM | [14] > 100 µM | [15] > 100 µM | [16] > 100 µM | [17] > 100 µM | [18] > 100 µM | [19] > 100 µM | [20] > 100 µM | [21] > 100 µM | [22] > 100 µM | [23] > 100 µM | [24] > 100 µM | [25] > 100 µM | [58] > 100 µM | [26] > 100 µM | [27] > 100 µM | [28] > 100 µM | [29] > 100 µM | [30] > 100 µM | [31] > 100 µM | [59] > 100 µM | [32] > 100 µM | [33] > 100 µM | [34] > 100 µM | [35] > 100 µM | [36] > 100 µM | [37] > 100 µM | [38] > 100 µM | [39] > 100 µM | [40] > 100 µM | [41] > 100 µM | [42] > 100 µM | [43] > 100 µM | [44] > 100 µM | [45] > 100 µM | [46] > 100 µM | [47] > 100 µM | [48] > 100 µM | [49] > 100 µM | [50] > 100 µM | [51] > 100 µM | [52] > 100 µM | [53] > 100 µM | [54] > 100 µM | [55] > 100 µM | [56] > 100 µM
> 100 µM: [13]
